According to ChEMBL document CHEMBL1156755, “Discovery of (Z)-5-(4-methoxybenzylidene)thiazolidine-2,4-dione, a readily available and orally active glitazone for the treatment of concanavalin A-induced acute liver injury of BALB/c mice” (J Med Chem, 2010):
Calls of active or inactive are those of the source. The rule behind the calls is not given here.

How the values were obtained:
RAW264.7 [1] = test: Inhibition of MCP1-induced chemotaxis in mouse RAW264.7 cells at 25 ug/mL relative to control; assay type: functional
Mus musculus [2] = test: Effect on serum alanine aminotransaminase level in concanavalin A-induced acute hepatitis model of BALB/c mouse at 50 mg/kg, po treated 0.5 hrs after concanavalin A challenge measured after 20 hrs (Rvb= 5734.5 +/- 2599.5); assay type: functional
Mus musculus [3] = test: Effect on serum aspartate aminotransaminase level in concanavalin A-induced acute hepatitis model of BALB/c mouse at 50 mg/kg, po treated 0.5 hrs after concanavalin A challenge measured after 20 hrs (Rvb= 4997.9 +/- 2619.6); assay type: functional
RAW264.7 [4] = test: Inhibition of MCP1-induced chemotaxis in mouse RAW264.7 cells; assay type: functional, cell-based
[5] = Oral bioavailability in BALB/c mouse at 30 mg/kg; assay type: ADME, organism-based; conditions: in vivo
[6] = Half life in BALB/c mouse at 30 mg/kg, po; assay type: ADME, organism-based; parameters: dose 30 mg/kg, route oral; conditions: in vivo
Mus musculus [7] = test: Decrease in concanavalin A-induced hepatic cell necrosis in acute hepatitis model of BALB/c mouse at 50 mg/kg, ig treated 0.5 hrs after concanavalin A challenge measured after 20 hrs by H and E staining based histopathology study; assay type: functional, organism-based; parameters: dose 50 mg/kg
Mus musculus [8] = test: Plasma concentration in BALB/c mouse at 30 mg/kg, po; assay type: ADME, organism-based; parameters: dose 30 mg/kg, route oral; conditions: in vivo
Mus musculus [9] = test: Toxicity in BALB/c mouse assessed as pathological changes in liver at 50 mg/kg, ig after 20 hrs by H and E staining based histopathology study; assay type: organism-based; parameters: dose 50 mg/kg, route intragastric; conditions: in vivo, po
Mus musculus [10] = test: Toxicity in BALB/c mouse assessed as pathological changes in kidney at 50 mg/kg, ig after 20 hrs by H and E staining based histopathology study; assay type: organism-based; parameters: dose 50 mg/kg, route intragastric; conditions: in vivo, po
Mus musculus [11] = test: Toxicity in BALB/c mouse assessed as pathological changes in lung at 50 mg/kg, ig after 20 hrs by H and E staining based histopathology study; assay type: organism-based; parameters: dose 50 mg/kg, route intragastric; conditions: in vivo, po
Mus musculus [12] = test: Toxicity in BALB/c mouse assessed as pathological changes in spleen at 50 mg/kg, ig after 20 hrs by H and E staining based histopathology study; assay type: organism-based; parameters: dose 50 mg/kg, route intragastric; conditions: in vivo, po
Mus musculus [13] = test: Toxicity in BALB/c mouse assessed as pathological changes in heart at 50 mg/kg, ig after 20 hrs by H and E staining based histopathology study; assay type: organism-based; parameters: dose 50 mg/kg, route intragastric; conditions: in vivo, po
[14] = Tmax in BALB/c mouse at 30 mg/kg, po; assay type: ADME, organism-based; parameters: dose 30 mg/kg, route oral; conditions: in vivo
Mus musculus [15] = test: Toxicity in BALB/c mouse liver assessed as change in transaminase level at 50 mg/kg, ig after 20 hrs by H and E staining based histopathology study; assay type: organism-based; parameters: dose 50 mg/kg, route intragastric; conditions: in vivo, po

SMILES	inhibition at 25 µg/mL (RAW264.7 [1]) [%]	also measured
O=C1NC(=S)NC(=O)C1=Cc1ccc(Br)cc1	4.3	
O=C1NC(=S)NC(=O)C1=Cc1ccccc1	10.2	
O=C1C/C(=C\c2ccccc2)C(=O)N1	5.7	
COc1cc(/C=C2\SC(=O)NC2=O)ccc1O	15.8	
N=C1NC(=O)/C(=C/c2ccccc2)S1	10.1	
N=C1NC(=O)/C(=C/c2ccc(Cl)cc2)S1	13	
O=C1NC(=S)NC(=O)C1=Cc1cccc(O)c1	5.7	
COc1ccc(/C=C2\NC(=O)NC2=O)cc1OC	8.7	
CN(C)c1ccc(/C=C2\NC(=O)NC2=O)cc1	18.6	
COc1ccc(C=C2C(=O)NC(=O)NC2=O)cc1	6.2	
COc1ccc(/C=C2\SC(=N)NC2=O)cc1OC	9.4	
O=C1C/C(=C\c2ccc(Cl)cc2)C(=O)N1	17.9	
O=C1NC(=O)/C(=C/c2cccc(O)c2)N1	4.4	
COc1ccc(/C=C2\CC(=O)NC2=O)cc1	13.3	
O=C1NC(=O)/C(=C/c2ccc3nccnc3c2)S1	36.9	Activity (Mus musculus [2]): 1187.5 U/L; Activity (Mus musculus [3]): 1084.5 U/L; IC50 (RAW264.7 [4]): 5.31 µM
COc1ccc(/C=C2\SC(=O)NC2=O)cc1	57.8	bioavailability [5]: 14.9%; Activity (Mus musculus [2]): 677.7 U/L; half-life [6]: 3.37 h; Activity (Mus musculus [3]): 620 U/L; IC50 (RAW264.7 [4]): 0.72 µM; Activity (Mus musculus [7]): Active; Cp (Mus musculus [8]): 4980 ng/mL; Activity (Mus musculus [9]): Non-toxic; Activity (Mus musculus [10]): Non-toxic; Activity (Mus musculus [11]): Non-toxic; Activity (Mus musculus [12]): Non-toxic; Activity (Mus musculus [13]): Non-toxic; Tmax [14]: 0.5 h; Activity (Mus musculus [15]): Non-toxic
COc1ccc(/C=C2\NC(=O)NC2=O)cc1	19.9	
CN(C)c1ccc(C=C2C(=O)NC(=S)NC2=O)cc1	35.7	Activity (Mus musculus [2]): 2930.2 U/L; Activity (Mus musculus [3]): 2072.8 U/L; IC50 (RAW264.7 [4]): 7.2 µM; Activity (Mus musculus [7]): Active
O=C1NC(=O)/C(=C/c2ccc(Br)cc2)N1	14	
O=C1C/C(=C\c2ccc(O)cc2)C(=O)N1	8.4	
O=C1NC(=O)C(=Cc2ccc(Br)cc2)C(=O)N1	5.7	
O=C1C/C(=C\c2ccc(Br)cc2)C(=O)N1	14.3	
COc1cc(/C=C2\SC(=N)NC2=O)ccc1O	19.9	
COc1ccc(C=C2C(=O)NC(=S)NC2=O)cc1	27.4	Activity (Mus musculus [2]): 3141.2 U/L; Activity (Mus musculus [3]): 2109.7 U/L; IC50 (RAW264.7 [4]): 11.2 µM; Activity (Mus musculus [7]): Active
CN(C)c1ccc(/C=C2\SC(=N)NC2=O)cc1	14	
N=C1NC(=O)/C(=C/c2ccc(Br)cc2)S1	16.6	

SMILES	inhibition at 25 µg/mL (RAW264.7 [1]) [%]	also measured
O=C1NC(=S)NC(=O)C1=Cc1ccc(Cl)cc1	4.1	
N=C1NC(=O)/C(=C/c2ccc(O)cc2)S1 [MIRIN]	4.4	
O=C1NC(=O)C(=Cc2ccc(Cl)cc2)C(=O)N1	4.1	
COc1ccc(/C=C2\SC(=O)NC2=O)cc1OC	16.6	
O=C1NC(=S)NC(=O)C1=Cc1ccc(O)cc1	14.2	
O=C1NC(=O)C(=Cc2cccc(O)c2)C(=O)N1	15	
O=C1NC(=O)C(=Cc2ccccc2O)C(=O)N1	5.8	
COc1cc(/C=C2\NC(=O)NC2=O)ccc1O	16.6	
O=C1NC(=O)C(=Cc2ccc(O)cc2)C(=O)N1	4.3	
COc1ccc(C=C2C(=O)NC(=O)NC2=O)cc1OC	14.2	
COc1cc(C=C2C(=O)NC(=O)NC2=O)ccc1O	4.1	
O=C1NC(=S)NC(=O)C1=Cc1ccccc1O	8.9	
CN(C)c1ccc(/C=C2\CC(=O)NC2=O)cc1	15.7	
COc1cc(/C=C2\CC(=O)NC2=O)ccc1O	39.5	Activity (Mus musculus [2]): 3304.1 U/L; Activity (Mus musculus [3]): 3126.9 U/L; IC50 (RAW264.7 [4]): 20.5 µM
O=C1NC(=O)/C(=C/c2cccc(O)c2)S1	14.4	
COc1ccc(C=C2C(=O)NC(=S)NC2=O)cc1OC	14.2	
O=C1NC(=O)/C(=C/c2ccc(Br)cc2)S1	16.9	
COc1ccc(/C=C2\SC(=N)NC2=O)cc1	18.6	
O=C1NC(=O)/C(=C/c2ccc(O)cc2)N1 [4-HYDROXYPHENYLMETHYLENE HYDANTOIN]	13	
CN(C)c1ccc(C=C2C(=O)NC(=O)NC2=O)cc1	6.2	
O=C1NC(=O)/C(=C/c2ccccc2)S1	16.9	
CN(C)c1ccc(/C=C2\SC(=O)NC2=O)cc1	15.8	
O=C1NC(=O)C(=Cc2ccccc2)C(=O)N1	5.7	
O=C1NC(=O)/C(=C/c2ccc(O)cc2)S1	25.1	
COc1cc(C=C2C(=O)NC(=S)NC2=O)ccc1O	14.4	
O=C1C/C(=C\c2cccc(O)c2)C(=O)N1	11.4	
